Laboratory results as given in patent US6440989B2, “Phenyl-substituted tricyclic inhibitors of farnesyl-protein transferase” (Schering Corporation, priority 1997, dated 2002).

Biological target: T1, partially purified rat brain farnesyl protein transferase (FPT) (Rattus norvegicus, UniProt Q02293+Q04631)
T1 construct: partially purified rat brain farnesyl protein transferase (FPT); from tissue; host or cells: rat brain
Test: In vitro enzyme assay: inhibition of Ras-CVLS farnesylation by farnesyl protein transferase
Type: biochemical
Description: 1. In vitro enzyme assays: FPT IC50 (inhibition of farnesyl protein transferase, in vitro enzyme assay) are determined by the methods disclosed in WO/10515 or WO 95110516.

Row | IC50 | SMILES
1 | > 16 nM | Cc1cc(Br)c2c(c1)CCc1cc(Br)cnc1C2C1CCN(C(=O)Cc2cc[n+]([O-])cc2)CC1 (single isomer, unassigned; (-)) [Example 34, (−) 4-(3-Bromo-6,11-dihydro-10-bromo-8-methyl-5H-benzo[5,6]cyclohepta[1,2-b]pyridin-11-yl)-1-(4-pyridinylacetyl)piperidine N1-Oxide]
2 | 5.4 nM | Cc1cc(Br)c2c(c1)CCc1cc(Br)cnc1C2(O)C1CCN(C(=O)Cc2cc[n+]([O-])cc2)CC1 (single isomer, unassigned; (-)) [Example 36, (−) 4-(3-Bromo-6,11-dihydro-11-hydroxy-10-bromo-8-methyl-5H-benzo[5,6]cyclohepta[1,2-b]pyridin-11-yl)-1-(4-pyridinylacetyl)piperidine N1-Oxide]
3 | 67 nM | COc1cc2c(c(OC)c1)C(N1CCN(C(=O)Cc3cc[n+]([O-])cc3)CC1)c1ncc(Br)cc1CC2 (stereo not drawn) [Example 1, 1-(3-Bromo-6,11-dihydro-8,10-dimethoxy-5H-benzo[5,6]cyclohepta[1,2-b]pyridin-11-yl)-4-(4-pyridinylacetyl)piperazine N4-oxide]
4 | 34 nM | COc1cc(C)cc2c1C(C1CCN(C(=O)Cc3cc[n+]([O-])cc3)CC1)c1ncc(C)cc1CC2 (stereo not drawn) [Example 2, 4-(6,11-dihydro-10-methoxy-3,8-dimethyl-5H-benzo[5,6]cyclohepta[1,2-b]pyridin-11-yl)-1-(4-pyridinylacetyl)piperidine N1-15 oxide]
5 | > 200 nM | COc1cc(C)c(Cl)c2c1C(=C1CCN(C(=O)Cc3cc[n+]([O-])cc3)CC1)c1ncccc1CC2 [Example 5, (+,−)-4-(7-Chloro-5,6-dihydro-8-methyl-10-methoxy-11H-benzo[5,6]cyclohepta[1,2-b]pyridin-11-ylidene)-1-(4-pyridinylacetyl)piperidine N1-oxide]
6 | 45 nM | Cc1cc(O)c2c(c1)CCc1cc(Br)cnc1C2=C1CCN(C(=O)Cc2cc[n+]([O-])cc2)CC1 [Example 6, (+,−)-4-(3-Bromo-10-hydroxy-8-methyl--5,6-dihydro-11H-benzo[5,6]cyclohepta[1,2-b]pyridin-11-ylidene)-1-(4-pyridinylacetyl)piperidine N1-oxide]
7 | 60 nM | COc1cc(C)cc2c1C(=C1CCN(C(=O)Cc3cc[n+]([O-])cc3)CC1)c1ncc(C)cc1CC2 [Example 7, 4-(5,6-dihydro-10-methoxy-3,8-dimethyl-11H-benzo[5,6]cyclohepta[1,2-b]pyridin-11-ylidene)-1-(4-pyridinylacetyl)piperidine N1-oxide]
8 | 30 nM | COc1cc(C)cc2c1C(=C1CCN(C(=O)Cc3cc[n+]([O-])cc3)CC1)c1ncc(Br)cc1CC2 [Example 8, (+,−)-4-(3-bromo-10-methoxy-8-methyl-5,6-dihydro-11H-benzo[5,6]cyclohepta[1,2-b]pyridin-11-ylidene)-1-(4-pyridinylacetyl)piperidine N1-oxide]
9 | 59 nM | C=Cc1cnc2c(c1)CCc1cc(C)cc(OC)c1C2C1CCN(C(=O)Cc2cc[n+]([O-])cc2)CC1 (stereo not drawn) [Example 27, 4-(3-Ethenyl-6,11-dihydro-10-methoxy-8-methyl-5H-benzo[5,6]cyclohepta[1,2-b]pyridin-11-yl)-1-(4-pyridinylacetyl)piperidine N1-Oxide]
10 | 132 nM | C=Cc1cnc2c(c1)CCc1cc(C)cc(OC)c1C2C1CCN(S(C)(=O)=O)CC1 (stereo not drawn) [Example 28, 4-(3-Ethenyl-6,11-dihydro-10-methoxy-8-methyl-5H-benzo[5,6]cyclohepta[1,2-b]pyridin-11-yl)-1-(methylsulfonyl)piperidine]
11 | 74 nM | CCc1cnc2c(c1)CCc1cc(C)cc(OC)c1C2C1CCN(C(=O)Cc2cc[n+]([O-])cc2)CC1 (stereo not drawn) [Example 29, 4-(3-Ethyl-6,11-dihydro-10-methoxy-8-methyl-5H-5 benzo[5,6]cyclohepta[1,2-b]pyridin-11-yl)-1-(4-pyridinylacetyl)piperidine, N1-Oxide]
12 | 5.4 nM | Cc1cc(Br)c2c(c1)CCc1cc(Br)cnc1C2=C1CCN(C(=O)Cc2cc[n+]([O-])cc2)CC1 [Example 37, -(3-Bromo-5,6-dihydro-10-bromo-8-methyl-11H-benzo[5,6]cyclohepta[1,2-b]pyridin-11-ylidene)-1-(4-pyridinylacetyl)piperidine N1-Oxide]
